Test results published in patent US7709443B2, “Cyclic peptide antitumor agents” (Northwestern University, priority 2003, dated 2010).
Converted amounts (≈) assume the structure as drawn. Like-named read-outs stand apart in the source and are kept apart here. Square brackets hold non-standard residues; d marks the D form. Peptide text beside a SMILES is read from it. NMePhe(4-Br) = CN[C@@H](Cc1ccc(Br)cc1)C(=O)O; Phe(4-Br) = N[C@@H](Cc1ccc(Br)cc1)C(=O)O; Phe(4-I) = N[C@@H](Cc1ccc(I)cc1)C(=O)O; NMeF = CN[C@@H](Cc1ccccc1)C(=O)O; Hica(2S) = CC(C)C[C@H](O)C(=O)O; NMeL = CN[C@@H](CC(C)C)C(=O)O; Aib = CC(C)(N)C(=O)O

Experiments:
[1] = test system: HCT-116 (human colon carcinoma); experiment: cells; conditions: for times more potent than sansalvamide A toward HCT-116: relative to sansalvamide A
Description: The HCT-116 human colon adenocarcinoma screen is a tissue culture first line assay to detect inherent cytotoxicity against malignant cancer cells. This strain is considered to be an “indicator strain” by many for the selection of inhibitors that target solid tumors. The assay is a calorimetric endpoint assay which can be produced in 96-well format trays. Data are acquired by plate reader and dose response curves are produced by computer analysis. […] This assay is run routinely as described below and would be understood in the art.
1. Media (1000 mL McCoy's 5A Medium, 114 mL Fetal Bovine Serum, 25 mL Hepes buffer solution (IM), 12.5 mL Penicillin-Streptomycin solution)
2. Cell line (HCT-116, human colon cancer cell line)
3. Indicator (MTS and PMS in DPBS)
5. Standard anticancer drug (etoposide (VP-16); stock is 4 mg/mL in DMSO
6. DPBS (without CaCl2 and MgCl2)
1. Remove medium from the cells and rinse with 10 mL sterile DPBS.
3. Allow to stand in hood for 1 minute.
4. Remove trypsin with sterile pipette.
5. Allow flask to stand in hood for 2-5 minutes.
6. Add 10 mL of media to flask and pipette up and down to gently break up cell clumps.
7. Count the number of cells using a hemacytometer.
8. Determine # of plates needed, and total volume of cell suspension (16 or 18 mL per plate).
9. Dilute cells to a final concentration of 2.5×10^4 cells/mL in a sterile flask.
10. Pour cell suspension into a sterile trough.
For Serial Dilution Plates
1. Add 175 μL to each well in the first row of a 96 well plate.
2. Add 150 μL to the rest of the wells in A1-A10 & A12.
3. In row 11 add 150 μL cell suspension to the first 6 wells and only media to the last two.
For Single Concentration Plates
1. Add 150 μL of sterile media to G11 & H11.
2. Add 150 μL of cell suspension to all other wells.
3. Add 25 μL more to well H1.
Incubate plates overnight at 37° C. & 5% CO2
1. Add 25 μL of test compounds @ 10 mg/mL to A1-A10, 25 μL of DMSO to A11 & 25 μL of etoposide (4 mg/mL) to A12.
2. Using a twelve channel pipette, mix well then remove 50 μL from the first row and transfer to the next row, repeat down the plate until row F, then remove tip # 11 and continue down plate discarding the last 50 μL.
3. Incubate plates for 72 h.
1. Add 20 μL of MTS/PMS solution to each well.
3. Read plates @490 nm on plate reader.

[2] = test system: PC-3 (Prostate) human cancer cell line; conditions: three days
Experimental: (§5) Cells were plated at 5,000 cells per well in 24-well plates, treated for three days, then counted. Cell number was normalized to the number of cells in untreated control (DMSO) cells, also after three days.

[3] = test system: MDA-MB231 (Breast) human cancer cell line; conditions: three days
Experimental: as §5

[4] = test system: WM115 (Melanoma) human cancer cell line; conditions: three days
Experimental: as §5

[5] = test system: Caspase-3 activity in PC-3 cells; experiment: Caspase-3 activity, fluorometric assay; type: cell-based, human; conditions: relative to DMSO and staurosporin controls
Experimental: Caspase-3 is a mediator of apoptosis, and induction of Caspase-3 activity indicates induction of apoptosis. Activity of Caspase-3 was measured by a fluorometric assay, as described in the literature, referenced above.

AsPC-1 cells [6] = experiment: Cell proliferation assay (Guava ViaCount cell number), AsPC-1; type: cell-based, human; conditions: AsPC-1, 10 μM, 72 hours, vs vehicle (DMSO)
Experimental: (§1) Given the results of the preceding example, several compounds of this invention were tested against human pancreatic cancer cell lines. Two cancer cell lines were selected: S2-013 (well-differentiated) and AsPC-1 (poorly differentiated). These cell lines were purchased from American Type Culture Collection (Manassas, Va.). Both cell lines were grown in DMEM and plated as monolayers in the medium supplemented with 10% fetal bovine serum in a humidified atmosphere of […] and 5% CO2 at 37° C. The cells were regularly seeded into 75 cm^2 flasks with media changes every second or third day. For experiments, cells were grown to 70% confluence, digested with trypsin-EDTA, and plated in either 6-, 24-, or 48-well plates.
(§2) Cell Proliferation Assay. Cells were regularly seeded into three 6-well plates and incubated at 37° C. for 24 hours. Cells were then cultured in serum-free medium for another 24 hours and treated in fresh serum-free medium with or without 10 μM of cyclic peptide 1k for 24, 48, and 72 hours. At the end of each time period, the cells were trypsinized to produce a single cell suspension, and the cell number in each well was determined using Guava Technologies=ViaCount Assay (Guava Technologies Inc, Hayward, Calif.).
(§3) Statistical Analysis. Data were analyzed by ANOVA with Dunnett's or Bonferoni's corrections for multiple comparisons, as appropriate. This analysis was performed with the Prism software package (GraphPad, San Diego, Calif.). Data were expressed as mean±SEM.

S2-013 cell line = experiment: Cell proliferation assay (Guava ViaCount cell number), S2-013; type: cell-based, human; conditions: S2-013, 10 μM, 72 hours, vs vehicle (DMSO)
Experimental: as §1, §2, §3

PC-3 cells = experiment: Annexin V binding, induction of apoptosis; type: cell-based, human; conditions: after 72 hours
Description: The ability of the compounds in this invention to induce apoptosis was also studied, based on a methodology previously reported in the literature. (See, Soff et al. Cancer Res., 63:4275-4289, 2003.) As understood by those skilled in the art, the ability of Annexin V to bind two cells is related to altered phospholipids on a cell surface, induced by apoptosis. As such, increased Annexin V binding indicates induction of apoptosis.

[7] = test system: AsPC-1 human pancreatic cancer cells; experiment: DNA synthesis by [methyl-3H] thymidine incorporation, AsPC-1; type: cell-based; conditions: AsPC-1, 24 hours, FIG. 6
Experimental: as §1
DNA Synthesis by [methyl-^3H] Thymidine Incorporation. Cells were plated in 24-well plates at a concentration of 50,000 cells/well. […] Radioactivity, indicating incorporation of ^3H-methyl thymidine into DNA, was measured by adding scintillation cocktail and counting on a scintillation counter (LKB RackBeta; Wallac, Turku, Finland).
Statistical Analysis. Data were analyzed by ANOVA with Dunnett's or Bonferoni's corrections for multiple comparisons, as appropriate. […] Data were expressed as mean±SEM.

AsPC-1 cells [8] = experiment: Morphological changes using light microscopy, AsPC-1; type: cell-based, human; conditions: AsPC-1, 24 hours, 0.1-100 μM tested
Experimental: as §1
Morphological Changes Using Light Microscopy. AsPC-1 and S2-013 cells plated in 24-well plates were treated with varying concentrations (0.1-100 μM) of cyclic peptide 1k for 24 hours. Cells were then viewed using light microscopy, and digital images were taken with a Kodak DC120 zoom digital camera (Eastman Kodak Co., Rochester, N.Y.).

[9] = test system: AsPC-1 human pancreatic cancer cells; experiment: Cell cycle analysis by flow cytometry, AsPC-1; type: cell-based; conditions: AsPC-1, 10 μM, 24 hours
Experimental: (§4) Cell Cycle Analysis by Flow Cytometry. AsPC-1 and S2013 human pancreatic cancer cells were cultured in T75 flasks with media containing 10% FBS. After reaching 50-60% confluence, the cells were serum-starved for 24 hours, and then treated with 10 μM of cyclic peptide 1k for 24 hours. At the end of the treatment, the cells were harvested with trypsin-EDTA solution to produce single cell suspension. The cells were then centrifuged at 1000×g for 10 minutes. The pellets were washed twice with ice-cold phosphate buffer saline (PBS), and re-suspended in 0.5 ml PBS. 5 ml of ice-cold 70% ethanol was added to each cell suspension and incubated for 12 hours at 4° C. The cells fixed in ethanol were centrifuged at 1000×g for 10 minutes and the subsequent pellets were washed with ice-cold PBS twice. The final cell pellets were reconstituted in the 1 ml Telford reagent and horizontally shaken for 1 hour in the dark at room temperature. The red fluorescence of the single events was recorded using a laser beam at 488 nm excitation 8 and 610 nm as emission 8 to measure the DNA index. Experiments were repeated three times.

[10] = test system: S2013 human pancreatic cancer cells; experiment: Cell cycle analysis by flow cytometry, S2013; type: cell-based; conditions: S2013, 10 μM, 24 hours
Experimental: as §4

Compound | IC50 ([1]; HCT-116 bioassay, Table 1) [µg/mL] | Fold Induction Over DMSO control ([2]; PC-3, 1 μM) | Fold Induction Over DMSO control ([2]; PC-3, 10 μM) | Fold Induction Over DMSO control ([3]; MDA-MB231, 1 μM) | Fold Induction Over DMSO control ([3]; MDA-MB231, 10 μM) | Fold Induction Over DMSO control ([4]; WM115, 1 μM) | Fold Induction Over DMSO control ([4]; WM115, 10 μM) | change in number of cells (AsPC-1 cells [6]) | change in number of cells (S2-013 cell line) | other results
CC(C)C[C@@H]1NC(=O)[C@H](C(C)C)NC(=O)[C@H](CC(C)C)OC(=O)[C@H](CC(C)C)NC(=O)[C@H](Cc2ccc(Br)cc2)NC1=O (cyclo(L[Phe(4-Br)]L[Hica(2S)]V)) | 4.5 (≈ 6.76 µM) | – | – | – | – | – | – | – | – | –
CC(C)C[C@@H]1NC(=O)[C@H](C(C)C)NC(=O)[C@H](CC(C)C)OC(=O)[C@H](CC(C)C)NC(=O)[C@H](Cc2ccc(I)cc2)NC1=O (cyclo(L[Phe(4-I)]L[Hica(2S)]V)) | 11.3 (≈ 15.9 µM) | – | – | – | – | – | – | – | – | –
CC(C)C[C@@H]1NC(=O)[C@H](Cc2ccccc2)NC(=O)[C@H](CC(C)C)NC(=O)[C@H](C(C)C)NC(=O)[C@H](CC(C)C)NC1=O [Compound 1, sansalvamide A peptide] (cyclo(FLLVL)) | 0.98 (≈ 1.67 µM) | 1.03 | 0.90 | 0.91 | 0.69 | 0.92 | 0.56 | – | – | times more potent than sansalvamide A toward HCT-116 [1]: about 10 times
CC(C)C[C@@H]1NC(=O)[C@H](C(C)C)NC(=O)[C@H](CC(C)C)NC(=O)[C@H](CC(C)C)N(C)C(=O)[C@H](Cc2ccc(Br)cc2)NC1=O [Compound 1c] (cyclo([Phe(4-Br)][NMeL]LVL)) | – | 0.75 | – | 0.56 | – | 1.10 | – | – | – | Caspase-3 activity [5]: induced
CC(C)C[C@@H]1NC(=O)[C@H](Cc2ccc(Br)cc2)NC(=O)[C@H](CC(C)C)N(C)C(=O)[C@H](C(C)C)NC(=O)[C@H](CC(C)C)NC1=O [Compound 1i] (cyclo([Phe(4-Br)]LLV[NMeL])) | – | 0.85 | – | 0.96 | – | 1.44 | – | significant (p<0.05) decrease | significant (p<0.05) decrease | induction of apoptosis (Annexin V binding) (PC-3 cells): induction of apoptosis was observed; Caspase-3 activity [5]: induced
CC(C)C[C@@H]1NC(=O)[C@H](CC(C)C)NC(=O)[C@H](Cc2ccc(Br)cc2)N(C)C(=O)[C@H](CC(C)C)NC(=O)[C@H](C(C)C)NC1=O [Compound 1k] (cyclo([NMePhe(4-Br)]LLVL)) | – | 0.95 | 0.66 | 3.17 | 0.41 | 1.05 | 0.13 | significant (p<0.05) decrease | significant (p<0.05) decrease | concentration-dependent effect on thymidine incorporation [7]: concentration-dependent inhibition; compound concentration giving obvious morphological changes (AsPC-1 cells [8]): ≥ 10 μM; S phase fraction [9]: marked decrease; cell cycle effect [9]: G0/G1 phase cell cycle arrest; subG1 fraction of apoptotic cells [9]: increase; S phase fraction [10]: marked decrease; cell cycle effect [10]: G0/G1 phase cell cycle arrest; subG1 fraction of apoptotic cells [10]: increase
CC(C)C[C@@H]1NC(=O)[C@H](Cc2ccccc2)NC(=O)[C@H](Cc2ccccc2)N(C)C(=O)[C@H](Cc2ccccc2)NC(=O)C(C)(C)NC(=O)[C@H](CC(C)C)N(C)C(=O)[C@@H]2CCCN2C1=O [Scytalidamide A, reference compound] (cyclo(F[NMeF]FLP[NMeL][Aib])) | – | 0.63 | 0.15 | 2.75 | 0.11 | 1.01 | 0.07 | significant (p<0.05) decrease | exception | –
CC(C)C[C@@H]1NC(=O)[C@H](C(C)C)NC(=O)[C@H](CC(C)C)N(C)C(=O)[C@H](CC(C)C)NC(=O)[C@H](Cc2ccc(Br)cc2)NC1=O [drawing 9] (cyclo([Phe(4-Br)]L[NMeL]VL)) | 0.11 (≈ 0.162 µM) | – | – | – | – | – | – | – | – | times more potent than sansalvamide A toward HCT-116 [1]: ~100 times
COc1cc([C@@H]2c3cc4c(cc3[C@@H](O[C@@H]3O[C@@H]5CO[C@@H](C)O[C@H]5[C@H](O)[C@H]3O)[C@H]3COC(=O)[C@H]23)OCO4)cc(OC)c1O [etoposide, reference compound] | – | – | – | – | – | – | – | – | – | IC50 ([1]; Homo sapiens, HCT-116): 1.5 µg/mL (≈ 2.55 µM)
